Test results: patent US20140295402A1, “METHODS AND MATERIALS FOR PROLONGING USEFUL STORAGE OF RED BLOOD CELL PREPARATIONS AND PLATELET PREPARATIONS” (priority 2011, published 2014)

How the values were obtained:
[1] = test system: Corynebacterium; test: Bacterial growth in inoculated apheresis platelet unit, quantitative culture; assay type: cell-based; settings: platelets exposed to 99% CO2 for 10 minutes
Procedure: (§1) Outdated apheresis platelet unit (day 6) was obtained from the Mayo Clinic components laboratory. About half of the platelet unit was perfused with 99% CO2 gas for 10 minutes with mixing. Control samples without CO2 exposure and CO2-treated samples of 10 mL volume were inoculated with clinical isolates of eight different organisms. Control and CO2 samples were spiked with identical bacterial loads. Quantitative culture using 5% sheep blood agar plates was conducted immediately following inoculation (0 hours) and at 24 and 48 hour time points. Time 0 hour inoculation load was selected to compensate for observed “spike and die” in outdated apheresis platelet units. The time 0 hour value represented the value of the initial spike.

[2] = test system: Bacillus cereus; test: as above; assay type: cell-based; settings: platelets exposed to 99% CO2 for 10 minutes
Procedure: as §1

[3] = test system: S. pyogenes; test: as above; assay type: cell-based; settings: platelets exposed to 99% CO2 for 10 minutes
Procedure: as §1

[4] = test system: Klebsiella oxytoca; test: as above; assay type: cell-based; settings: platelets exposed to 99% CO2 for 10 minutes
Procedure: as §1

[5] = test system: S. epidermidis; test: as above; assay type: cell-based; settings: platelets exposed to 99% CO2 for 10 minutes
Procedure: as §1

[6] = test system: Enterobacter cloacae; test: as above; assay type: cell-based; settings: platelets exposed to 99% CO2 for 10 minutes
Procedure: as §1

[7] = test system: S. aureus; test: as above; assay type: cell-based; settings: platelets exposed to 99% CO2 for 10 minutes
Procedure: as §1

[8] = test system: E. coli; test: as above; assay type: cell-based; settings: platelets exposed to 99% CO2 for 10 minutes
Procedure: as §1

[9] = test system: red blood cell preparation; test: Storage of red blood cell preparations in blood bags with CO2: pCO2, lactate, glucose and pH levels; assay type: cell-based; settings: for Glucose / Lactate: red blood cell preparation
Procedure: Red blood cells were collected and processed using standard techniques and stored in standard blood bags. Prior to collecting the red blood cells, an empty blood bag containing anti-coagulated citrate phosphate dextrose with adenine (AS1) was flushed with CO2 for one minute. The collection bag was then filled with blood from a donor. Next, 50 cubic centimeters of CO2 were added to the bag via the sterile docking port. The bag was gently inverted for 30 seconds and then placed upright. Using an empty syringe, the 50 cubic centimeters of air/CO2 was removed from the bag through the sterile docking port. The controls were red blood cell preparations placed in blood bags not flushed with CO2 and not exposed to 50 cubic centimeters of CO2.
The control and CO2 treated red blood cell preparations were tested for pCO2 (or pO2) levels, lactate levels, glucose levels, and pH levels at days 0, 14, and 21 (Table 1). […] This fall in pH is reversible, and pH levels can return to normal values of […] when normal pCO2 levels (e.g., 40-60 mmHg) are re-established.

[10] = test system: platelets in platelet-rich plasma (PRP); test: Platelet aggregation of PRP by optical aggregometry after equilibration with 99% CO2; assay type: cell-based, human
Procedure: Fresh human whole blood was drawn into 3.2% sodium citrate, and platelet-rich plasma (PRP) was prepared. Control citrated PRP was stored at room temperature in a polypropylene tube. CO2 was exposed to the air/fluid interface of PRP using a 99.9% CO2 tank. CO2 was administered for approximately 60 seconds during which time the pH dropped from an average value of 7.4 to 6.4.
Using a Chronolog 700 platelet aggregometer, platelet aggregation was performed pre- and post-CO2 to ADP, AA, and Epi. Platelet aggregometry was carried out as described elsewhere (Born and Cross, J. Physiol., 168:178-195 (1963)). The assay was performed at 37° C. with a sample stir speed of 1200 r.p.m. Each sample consisted of 450 μL platelet rich plasma.
In another study, the impact of CO2 on platelet function was explored by equilibrating platelet-rich plasma (PRP) with 99% CO2. The PRP was prepared by low-speed centrifugation of blood anticoagulated with 3.2% sodium citrate and kept in capped polypropylene tubes. Platelet function was measured by optical aggregometry with ADP and epinephrine as triggers. Equilibration with CO2 under a positive flow of gas was monitored by the fall in pH from 7.2 to 6.4, which typically occurs within 60 seconds. Degassing of CO2 by a flow of room air over the PRP was verified by the return to pH 7.2. Immediately after removal of the PRP from the CO2 atmosphere, aggregation to ADP and epinephrine was suppressed (FIG. 18, first set). When the samples had returned to pH 7.2, aggregation to both triggers was restored (FIG. 18, center set).

[11] = test system: Pseudomonas aeruginosa; test: Bacterial growth in spiked PRP, quantitative culture after 30 hours; assay type: cell-based; settings: PRP spiked with 10 CFU, approximately 30 hours at room temperature
Procedure: (§2) Clinical isolates of Bacillus cereus and Pseudomonas aeruginosa were spiked into control and CO2 treated platelets at a concentration of 10 CFU (i.e., 10 bacteria total, not 10 CFU/mL). The platelets were stored for approximately 30 hours at room temperature on a platelet agitator. After 30 hours, quantitative culture was performed on serial dilutions of the platelet sample on 5% sheep blood agar plates.

[12] = test system: Bacillus cereus; test: as above; assay type: cell-based; settings: PRP spiked with 10 CFU, approximately 30 hours at room temperature
Procedure: as §2

[13] = test system: platelets; test: ATP secretion of platelets induced with 1 μM thrombin (Zylux luminometer); assay type: cell-based, human; settings: after 24 hours storage at room temperature
Procedure: ATP secretion was performed using a Zylux luminometer where the secretion was induced using 1 μM thrombin. […] However, the CO2 treated platelets had approximately 80% of baseline secretion after 24 hours storage.

[14] = storage with CO2, compared to controls

O=C=O [CO2]
bacterial growth ([1]; 0 hours (initial spike)): 7.90E+02 CFU/mL | bacterial growth ([1]; 24 hours): 2.70E+02 CFU/mL | bacterial growth ([1]; 48 hours): 4.20E+02 CFU/mL | bacterial growth ([2]; 0 hours (initial spike)): 1.00E+01 CFU/mL | bacterial growth ([2]; 24 hours): no | bacterial growth ([2]; 48 hours): no | bacterial growth ([3]; 0 hours (initial spike)): 1.55E+03 CFU/mL | bacterial growth ([3]; 24 hours): 1.20E+05 CFU/mL | bacterial growth ([3]; 48 hours): 8.00E+07 CFU/mL | bacterial growth ([4]; 0 hours (initial spike)): 8.10E+02 CFU/mL | bacterial growth ([4]; 24 hours): 1.15E+04 CFU/mL | bacterial growth ([4]; 48 hours): 4.30E+05 CFU/mL | bacterial growth ([5]; 0 hours (initial spike)): 6.10E+02 CFU/mL | bacterial growth ([5]; 24 hours): 3.30E+02 CFU/mL | bacterial growth ([5]; 48 hours): 4.20E+02 CFU/mL | bacterial growth ([6]; 0 hours (initial spike)): 1.22E+03 CFU/mL | bacterial growth ([6]; 24 hours): 1.20E+06 CFU/mL | bacterial growth ([6]; 48 hours): 8.60E+07 CFU/mL | bacterial growth ([7]; 0 hours (initial spike)): 1.17E+03 CFU/mL | bacterial growth ([7]; 24 hours): 3.20E+03 CFU/mL | bacterial growth ([7]; 48 hours): 2.70E+04 CFU/mL | bacterial growth ([8]; 24 hours): 1.80E+02 CFU/mL | bacterial growth ([8]; 48 hours): 5.20E+03 CFU/mL | Glucose ([9]; day 0 of storage): 571 mg/dL | Lactate ([9]; day 0 of storage): 1.2 µmol/mL | Glucose ([9]; day 14 of storage): 503 mg/dL | Lactate ([9]; day 14 of storage): 5 µmol/mL | Glucose ([9]; day 21 of storage): 478 mg/dL | Lactate ([9]; day 21 of storage): 5.3 µmol/mL | glucose consumption [9, 14]: inhibition | lactate formation [9, 14]: inhibition | aggregation ([10]; after 24 hours under CO2): equivalent to that of controls | aggregation to ADP and epinephrine ([10]; after samples had returned to pH 7.2): restored | aggregation to ADP and epinephrine ([10]; immediately after removal of the PRP from the CO2 atmosphere): suppressed | bacterial growth [11]: no growth | bacterial growth [12]: no growth | ATP secretion, of baseline [13]: approximately 80%
